What all share (type): biochemical
One test has as its target T1, TYK2 (Homo sapiens, UniProt P29597).
T1 construct: JAK1 (aa 850-1154) and TYK2 (aa 871-1187) are expressed with an N-terminally fused GST-tag; GST (N); purchased Carna Biosciences, Inc; host or cells: baculovirus expression system
T1 sequence (P29597 871-1187): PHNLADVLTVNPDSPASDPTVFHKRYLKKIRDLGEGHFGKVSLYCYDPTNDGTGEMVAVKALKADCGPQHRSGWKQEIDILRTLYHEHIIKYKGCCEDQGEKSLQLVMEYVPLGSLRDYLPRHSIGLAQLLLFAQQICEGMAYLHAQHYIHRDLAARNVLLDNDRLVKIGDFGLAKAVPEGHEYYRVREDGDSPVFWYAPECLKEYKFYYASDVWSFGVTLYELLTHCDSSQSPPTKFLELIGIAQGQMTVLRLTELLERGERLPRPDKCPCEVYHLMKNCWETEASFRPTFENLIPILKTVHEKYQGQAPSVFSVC
Nature of the test: TYK2 kinase assay (HTRF, inhibition of phosphorylation of a synthetic peptide). To be noted: catalytic domain aa 871-1187, GST-tag; 13 μM ATP (Km); read-out: TYK2 kinase inhibitory activity (EC50). The procedure:
JAK1, JAK2, JAK3 and TYK2 Kinase Assays:
Human baculovirus-expressed JAK1, 2, 3 and TYK2 were purchased from Carna Biosciences, Inc. All four purified enzymes contain only the catalytic domain. JAK1 (aa 850-1154) and TYK2 (aa 871-1187) are expressed with an N-terminally fused GST-tag, and JAK2 and JAK3 with an N-terminally fused His-tag. Inhibition of phosphorylation of a synthetic peptide was measured in an HTRF-based assay using the TK substrate-Biotin from the CisbioHTRFKinEASE TK kit. First, 2 μl of TK solution (TK substrate-biotin in kinase buffer [1× enzymatic buffer from HTRFKinEASE TK kit, 1 mM DTT]) is added to a plate containing 1 μl prediluted compound (final assay concentration DMSO: 0.75%). Then, 5 μl kinase-ATP mix (prepared in kinase buffer) is added to the wells and the plates are incubated at RT for 20-30 min. For all four kinases a concentration of ATP that corresponded to the Km for ATP was used. The final concentrations of buffers, substrate, kinase and ATP were: JAK1: 50 mMHepes buffer pH 7.0, 0.01% BSA, 10 mM MgCl2, 1 mM DTT, 7 μM ATP, 50 nMSEB, 1 μM TK Substrate-Biotin and 5 ng JAK1; JAK2: 50 mM Hepes buffer pH 7.0, 0.01% BSA, 5 mM MgCl2, 1 mM DTT, 4 μM ATP, 1 μM TK Substrate-Biotin and 0.1 ng JAK2; JAK3: 50 mMHepes buffer pH 7.0, 0.01% BSA, 5 mM MgCl2, 1 mM DTT, 2 μM ATP, 1 μM TK Substrate-Biotin and 0.3 ng JAK3; TYK2: 50 mMHepes buffer pH 7.0, 0.01% BSA, 5 mM MgCl2, 1 mM DTT, 13 μM ATP, 50 nMSEB, 1 μM TK Substrate-Biotin and 0.8 ng TYK2. Thereafter, the kinase reaction is stopped by adding 4 μl detection mix (final concentrations: 50 mM Hepes buffer pH 7.0, 0.01% BSA, 0.8 M KF, 20 mM EDTA, 42 nM Streptavidin-XL665 and 1:400 STKAbCryptate) and the plates are incubated overnight in the dark. The HTRF signal is read using an Envision plate reader.

A further test addresses T2, JAK2 (Homo sapiens, UniProt O60674).
T2 construct: All four purified enzymes contain only the catalytic domain; His (N); purchased Carna Biosciences, Inc; host or cells: baculovirus expression system
Nature of the test: JAK2 kinase assay (HTRF, inhibition of phosphorylation of a synthetic peptide). As to conditions: catalytic domain, His-tag; 4 μM ATP (Km); read-out: JAK2 kinase inhibitory activity (EC50). In short, it runs like this:
(§1)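 Baculovirus-expressed human catalytic domains (GST-JAK1, GST-TYK2, His-JAK2, His-JAK3) phosphorylated 1 μM TK substrate-biotin at ATP Km (JAK1 7 μM, JAK2 4 μM, JAK3 2 μM, TYK2 13 μM) in pH 7.0 Hepes for 20-30 min at RT, 0.75% DMSO. EDTA stop, then overnight streptavidin-XL665/cryptate-antibody detection and HTRF read.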

A further test deals with T3, JAK1 (Homo sapiens, UniProt P23458).
T3 construct: JAK1 (aa 850-1154) and TYK2 (aa 871-1187) are expressed with an N-terminally fused GST-tag; GST (N); purchased Carna Biosciences, Inc; host or cells: baculovirus expression system
The test is described as follows: JAK1 kinase assay (HTRF, inhibition of phosphorylation of a synthetic peptide). As to conditions: catalytic domain aa 850-1154, GST-tag; 7 μM ATP (Km); read-out: JAK1 kinase inhibitory activity (EC50). In short, it runs like this: as §1

The target of a further test is T4, JAK3 (Homo sapiens, UniProt P52333).
T4 construct: All four purified enzymes contain only the catalytic domain; His (N); purchased Carna Biosciences, Inc; host or cells: baculovirus expression system
The test is described as follows: JAK3 kinase assay (HTRF, inhibition of phosphorylation of a synthetic peptide). As to conditions: catalytic domain, His-tag; 2 μM ATP (Km); read-out: JAK3 kinase inhibitory activity (EC50). In outline:
as §1

T2 sequence (O60674 849-1124 limits assumed): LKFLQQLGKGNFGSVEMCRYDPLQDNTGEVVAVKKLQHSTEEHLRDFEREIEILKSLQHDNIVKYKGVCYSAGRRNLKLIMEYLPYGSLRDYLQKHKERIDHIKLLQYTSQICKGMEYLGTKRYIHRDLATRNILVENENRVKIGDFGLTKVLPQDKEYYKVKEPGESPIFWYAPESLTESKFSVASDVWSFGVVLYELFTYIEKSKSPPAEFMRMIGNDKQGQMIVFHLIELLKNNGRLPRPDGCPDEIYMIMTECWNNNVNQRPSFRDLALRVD
T3 sequence (P23458 850-1154): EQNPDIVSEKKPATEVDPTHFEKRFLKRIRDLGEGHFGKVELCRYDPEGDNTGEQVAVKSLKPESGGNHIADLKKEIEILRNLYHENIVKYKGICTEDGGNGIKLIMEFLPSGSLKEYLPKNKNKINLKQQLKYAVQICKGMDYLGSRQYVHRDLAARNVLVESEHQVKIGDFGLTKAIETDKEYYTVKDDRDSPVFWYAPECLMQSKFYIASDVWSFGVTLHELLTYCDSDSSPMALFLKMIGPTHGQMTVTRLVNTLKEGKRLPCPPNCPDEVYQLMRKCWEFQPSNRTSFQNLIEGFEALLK
T4 sequence (P52333 822-1111 limits assumed): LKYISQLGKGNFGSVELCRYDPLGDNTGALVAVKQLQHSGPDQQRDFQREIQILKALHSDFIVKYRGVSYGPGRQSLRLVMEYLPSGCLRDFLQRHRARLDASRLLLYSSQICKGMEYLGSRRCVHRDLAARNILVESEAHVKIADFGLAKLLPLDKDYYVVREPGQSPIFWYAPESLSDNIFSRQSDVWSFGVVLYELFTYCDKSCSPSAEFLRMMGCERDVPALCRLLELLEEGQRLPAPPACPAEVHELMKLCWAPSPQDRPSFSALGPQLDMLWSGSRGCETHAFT

`O=C(Cc1ccc(Cl)cc1)N1CCN(c2ncnc3[nH]ccc23)CC2(CC2)C1` [Example 125, 2-(4-chlorophenyl)-1-[5-(7H-pyrrolo[2,3-d]pyrimidin-4-yl)-5,8-diazaspiro[2.6]nonan-8-yl]ethanone]: the EC50 on TYK2 was 100 to 1000 nM; on JAK2 it was < 100 nM; at JAK1, < 100 nM; on JAK3, 100 to 1000 nM.

Take `N#CCOc1cccc(C(=O)N2CCN(c3ncnc4[nH]ccc34)CC3(CC3)C2)c1` [Example 14, 2-[3-[5-(7H-pyrrolo[2,3-d]pyrimidin-4-yl)-5,8-diazaspiro[2.6]nonane-8-carbonyl]phenoxy]acetonitrile]: the EC50 was > 1000 nM on TYK2, 100 to 1000 nM on JAK2, 100 to 1000 nM on JAK1 and > 1000 nM at JAK3.

In the case of `O=C(Cc1ccc(C(F)(F)F)cc1)N1CCN(c2ncnc3[nH]ccc23)CC2(CC2)C1` [Example 271, 1-[5-(7H-pyrrolo[2,3-d]pyrimidin-4-yl)-5,8-diazaspiro[2.6]nonan-8-yl]-2-[4-(trifluoromethyl)phenyl]ethanone], the EC50 on TYK2 was 100 to 1000 nM; at JAK2 it was < 100 nM; on JAK1, < 100 nM; at JAK3 it was 100 to 1000 nM.

For `Cc1ccc(S(=O)(=O)N2CC3(CC3)CN(c3ncnc4[nH]ccc34)CC2C)cc1` (stereo not drawn) [Example 98, 4-[7-methyl-8-(p-tolylsulfonyl)-5,8-diazaspiro[2.6]nonan-5-yl]-7H-pyrrolo[2,3-d]pyrimidine], the EC50 on TYK2, at JAK2, at JAK1 and on JAK3 was > 1000 nM in each case.

`N#Cc1ccc(CC(=O)N2CCN(c3ncnc4[nH]ccc34)CC3(CC3)C2)cc1` [Example 10, 4-{2-oxo-2-[8-(7H-pyrrolo[2,3-d]pyrimidin-4-yl)-5,8-diazaspiro[2.6]non-5-yl]ethyl}benzonitrile]: the EC50 at TYK2 was 100 to 1000 nM; on JAK2, < 100 nM; on JAK1, < 100 nM; on JAK3, < 100 nM.

Turning to `N#Cc1ccc(OCC(=O)N2CCN(c3ncnc4[nH]ccc34)CC3(CC3)C2)cc1` [Example 106, 4-[2-oxo-2-[5-(7H-pyrrolo[2,3-d]pyrimidin-4-yl)-5,8-diazaspiro[2.6]nonan-8-yl]ethoxy]benzonitrile], the EC50 at TYK2 was 100 to 1000 nM; on JAK2 it was < 100 nM; at JAK1, < 100 nM; on JAK3, 100 to 1000 nM.

As to `CNS(=O)(=O)c1csc(C(=O)N2CCN(c3ncnc4[nH]ccc34)CC3(CC3)C2)c1` [Example 28, N-methyl-5-[5-(7H-pyrrolo[2,3-d]pyrimidin-4-yl)-5,8-diazaspiro[2.6]nonane-8-carbonyl]thiophene-3-sulfonamide], the 50% effective concentration (EC50) at TYK2 was > 1000 nM; at JAK2, < 100 nM; at JAK1 it was 100 to 1000 nM; on JAK3 it was 100 to 1000 nM.

Consider `Cc1cc(S(N)(=O)=O)ccc1C(=O)N1CCN(c2ncnc3[nH]ccc23)CC2(CC2)C1` [Example 71, 3-methyl-4-[5-(7H-pyrrolo[2,3-d]pyrimidin-4-yl)-5,8-diazaspiro[2.6]nonane-8-carbonyl]benzenesulfonamide], for which the EC50 is > 1000 nM on TYK2, 100 to 1000 nM on JAK2, 100 to 1000 nM at JAK1 and 100 to 1000 nM at JAK3.

On to `O=C(CC1CCCC1)N1CCCN(c2ncnc3[nH]ccc23)CC12CC2` [Example 92, 2-cyclopentyl-1-[5-(7H-pyrrolo[2,3-d]pyrimidin-4-yl)-5,9-diazaspiro[2.6]nonan-9-yl]ethanone], for which the EC50 on TYK2 was > 1000 nM; on JAK2, 100 to 1000 nM; on JAK1 it was < 100 nM; on JAK3, 100 to 1000 nM.

Regarding `N#CCc1ccc(C(=O)N2CCN(c3ncnc4[nH]ccc34)CC3(CC3)C2)cc1` [Example 12, {4-[8-(7H-pyrrolo[2,3-d]pyrimidin-4-yl)-5,8-diazaspiro[2.6]nonane-5-carbonyl]phenyl}acetonitrile], the EC50 is > 1000 nM on TYK2, 100 to 1000 nM on JAK2, 100 to 1000 nM at JAK1 and > 1000 nM on JAK3.

In the case of `CC1CN(c2ncnc3[nH]ccc23)CC2(CC2)CN1C(=O)c1ccccc1` (stereo not drawn) [Example 284, [7-methyl-5-(7H-pyrrolo[2,3-d]pyrimidin-4-yl)-5,8-diazaspiro[2.6]nonan-8-yl]-phenyl-methanone], the EC50 at TYK2, on JAK2, at JAK1 and on JAK3 was > 1000 nM throughout.

For `Nc1nc(N2CCN(Cc3ccccc3)CC3(CC3)C2)c2cc[nH]c2n1` [Example 68, 4-(5-benzyl-5,8-diazaspiro[2.6]nonan-8-yl)-7H-pyrrolo[2,3-d]pyrimidin-2-amine], the EC50 at TYK2, on JAK2, on JAK1 and at JAK3 was > 1000 nM each time.

On to `NS(=O)(=O)c1ccc(CCC(=O)N2CCN(c3ncnc4[nH]ccc34)CC3(CC3)C2)cc1` [Example 34, 4-[3-oxo-3-[5-(7H-pyrrolo[2,3-d]pyrimidin-4-yl)-5,8-diazaspiro[2.6]nonan-8-yl]propyl]benzenesulfonamide], for which the EC50 was 100 to 1000 nM on TYK2, < 100 nM on JAK2, < 100 nM on JAK1 and < 100 nM at JAK3.

For the molecule `CNS(=O)(=O)c1csc(C(=O)N2CCN(c3ncnc4[nH]ccc34)CC3(CC3)C2)c1C` [Example 23, N,4-dimethyl-5-[5-(7H-pyrrolo[2,3-d]pyrimidin-4-yl)-5,8-diazaspiro[2.6]nonane-8-carbonyl]thiophene-3-sulfonamide], the EC50 on TYK2 is > 1000 nM; on JAK2 it was < 100 nM; at JAK1, 100 to 1000 nM; on JAK3 it was 100 to 1000 nM.

As to `N#Cc1ccc(CCC(=O)N2CCN(c3ncnc4[nH]ccc34)CC3(CC3)C2)cc1` [Example 115, 4-[3-oxo-3-[5-(7H-pyrrolo[2,3-d]pyrimidin-4-yl)-5,8-diazaspiro[2.6]nonan-8-yl]propyl]benzonitrile], the EC50 on TYK2 was 100 to 1000 nM; at JAK2, < 100 nM; on JAK1 it was < 100 nM; on JAK3 it was < 100 nM.

As for `CC1CN(c2ncnc3[nH]ccc23)CC2(CC2)CN1C(=O)Cc1ccc(C#N)cc1` (stereo not drawn) [Example 286, 4-[2-[7-methyl-5-(7H-pyrrolo[2,3-d]pyrimidin-4-yl)-5,8-diazaspiro[2.6]nonan-8-yl]-2-oxo-ethyl]benzonitrile], the EC50 on TYK2, at JAK2, on JAK1 and at JAK3 was > 1000 nM each time.

For the molecule `CC1CN(c2ncnc3[nH]ccc23)CC2(CC2)CN1` (stereo not drawn) [Example 293], the EC50 at TYK2, on JAK2, at JAK1 and on JAK3 was > 1000 nM in each case.

For `NS(=O)(=O)c1csc(C(=O)N2CCN(c3ncnc4[nH]ccc34)CC3(CC3)C2)c1` [Example 27, 5-[5-(7H-pyrrolo[2,3-d]pyrimidin-4-yl)-5,8-diazaspiro[2.6]nonane-8-carbonyl]thiophene-3-sulfonamide], the EC50 on TYK2 was > 1000 nM; at JAK2 it was < 100 nM; at JAK1 it was 100 to 1000 nM; on JAK3, < 100 nM.

Values taken from patent US9586961B2, “Homopiperazine derivatives as protein tyrosine kinase inhibitors and pharmaceutical use thereof” (LEO PHARMA A/S, priority 2010, dated 2017).
